Data: article PMC2888690 (Journal of combinatorial chemistry, 2009)
“And” between values parts separate entries of the source, which are not always exact repeats. Equal entries are not always repeated. Where two headings read alike, the source gives them in different places.

What was measured:
[1] = tested on: Bacillus anthracis Sterne; test: microbe, parasite or virus in culture; assay type: cell-based
[2] = tested on: Bacillus anthracis Sterne; test: microbe, parasite or virus in culture; assay type: cell-based; remark: listed apart in the source

Compound | MIC ([1]; 5 h, read-out: LB MIC) | MIC ([1]; read-out: LB B.a. MIC) | MIC ([2]; 5 h, read-out: MH MIC) | MIC ([2]; read-out: MH B.a. MIC)
O=C(Nc1ccc(NS(=O)(=O)c2ccc(Cl)c(Cl)c2)cc1)Nc1ccc([N+](=O)[O-])cc1 [5{1}, 3,4-Dichloro-(N-(4-(((4-nitrophenyl)amino)carbonyl)aminophenyl))benzenesulfonamide] | 2.8 µM and 1.3 µg/mL | 2.8 µM and 1.3 µg/mL | 3.8 µM and 1.8 µg/mL | 3.8 µM and 1.8 µg/mL
O=C(Nc1ccc(NS(=O)(=O)c2ccc(Cl)c(Cl)c2)cc1)Nc1cccc([N+](=O)[O-])c1 [5{2}, 3,4-Dichloro-(N-(4-(((3-nitrophenyl)amino)carbonyl)aminophenyl))benzenesulfonamide] | > 240 µM and > 115 µg/mL | > 240 µM and > 115 µg/mL | – | –
O=C(Nc1ccc(NS(=O)(=O)c2ccc(Cl)c(Cl)c2)cc1)Nc1ccccc1[N+](=O)[O-] [5{3}, 3,4-Dichloro-(N-(4-(((2-nitrophenyl)amino)carbonyl)aminophenyl))benzenesulfonamide] | > 240 µM and > 115 µg/mL | > 240 µM and > 115 µg/mL | – | –
Nc1ccc(S(=O)(=O)Nc2ccc(NC(=O)Nc3ccccc3[N+](=O)[O-])cc2)cc1 [compound 9, 4-Amino-(N-(4-(((2-nitrophenyl)amino)carbonyl)aminophenyl))benzenesulfonamide] | 120 µM and 53 µg/mL | – | – | –
